From paper PMC10065799, “High-throughput profiling of sequence recognition by tyrosine kinases and SH2 domains using bacterial peptide display” (eLife, 2023)
Blank lines part the entries; values can stand above or below the substance they belong to.

Experiments:
c-Src kinase domain [1] = target: T1, c-Src kinase domain (Homo sapiens, UniProt P12931); test: pTyr-Var library bacterial peptide display kinase screen (enrichment scores); format: biochemical; settings: sheet "Src";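 also: log2 fold change in enrichment of variant over reference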
c-Abl kinase domain = target: T2, c-Abl kinase domain (Mus musculus, UniProt P00520); test: as above; format: biochemical;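 also: log2 fold change in enrichment of variant over reference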
T2 sequence (P00520 242-493 limits assumed): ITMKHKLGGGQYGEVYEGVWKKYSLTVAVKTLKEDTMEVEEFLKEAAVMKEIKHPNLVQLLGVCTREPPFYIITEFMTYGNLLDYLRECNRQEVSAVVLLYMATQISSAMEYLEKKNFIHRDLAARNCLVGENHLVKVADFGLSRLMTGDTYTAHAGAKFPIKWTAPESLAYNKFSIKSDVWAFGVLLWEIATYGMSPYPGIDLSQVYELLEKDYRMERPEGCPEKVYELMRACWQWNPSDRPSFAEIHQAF

Fer kinase domain = test: as above; format: biochemical, mouse; settings: sheet "Fer"
EPHB1 kinase domain = test: as above; format: biochemical, human; settings: for Screen (variant relative to reference peptide, measured in the pTyr-Var library screen): sheet "EPHB1", variant seq vs reference seq, bacterial peptide display enrichment; for Screen: sheet EPHB1, effect of the variant peptide relative to its reference peptide in the pTyr-Var library screen (enrichment scores)
EPHB2 kinase domain = test: as above; format: biochemical, human; settings: sheet EPHB2;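 also: log2 fold change in enrichment of variant over reference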
c-Src kinase domain [2] = target: T1, c-Src kinase domain; test: ADP-Quest continuous fluorimetric kinase assay (Michaelis-Menten parameters and initial rates); format: biochemical; settings: ADP-Quest assay, c-Src kinase domain 10 nM, 100 μM ATP, 37 °C; three to five replicates; error = standard error of global Michaelis-Menten fit
From the text: A fluorescence-based assay from Eurofins (ADP Quest) was used to measure the Michaelis-Menten kinetic parameters for phosphorylation of the consensus peptides by purified tyrosine kinase domains. In this assay, ADP production as a result of kinase activity is coupled to the production of resorufin, a fluorophore that emits signal at 590 nm. For all experiments, the assay reactions were set up as described in the provided assay kit protocol, in a 384 well plate format. The peptide solutions were serially diluted in 100 mM Tris, pH 8.0, and the kinases were diluted to 50 nM in buffer (10 mM HEPES, 100 mM NaCl, 1 mM TCEP, 5 mM MgCl2, 10% (v/v) glycerol). The final reaction mixtures contained 10 nM of kinase with 100 μM of ATP. Reactions were initiated with the addition of 1 mM ATP into a 50 μL reaction mixture for a final concentration of 100 μM ATP. Phosphorylation reaction progress was monitored by measuring fluorescence at excitation 530 nm and emission 590 nm every 2 min at 37 °C on a plate reader (BioTek Synergy Neo 2). The fluorescence units (RFU) were converted to μM ADP by comparison to a standard curve, and the initial rates were extracted from the linear regime of the reaction progress curves. Initial rates were also measured for samples containing each kinase but lacking a peptide substrate, to account for background ATP hydrolysis. This background rate was subtracted from the rates measured in the presence of peptide. The subtracted rates were plotted as a function of substrate concentration and fit to the Michaelis-Menten equation to extract kcat and KM values.

c-Src kinase domain [3] = target: T1, c-Src kinase domain; test: RP-HPLC assay to measure peptide phosphorylation kinetics; format: biochemical; settings: purified peptide substrate
[4] = variant peptide versus its reference peptide in the pTyr-Var library screen
[5] = sheet "Abl", effect of variant peptide relative to its reference peptide in pTyr-Var library screen (enrichment)
[6] = variant peptide relative to its reference peptide, pTyr-Var library screen enrichment
[7] = effect of the variant relative to its reference peptide in the pTyr-Var library screen
[8] = effect of variant peptide relative to its reference peptide in the pTyr-Var library screen (enrichment scores)
[9] = value of the variant peptide against its reference peptide in the pTyr-Var library screen with Fer
[10] = effect of the variant peptide relative to its reference peptide in the pTyr-Var library screen
[11] = fig5-data2, sheet "Abl", Screen for the variant/reference peptide pair, pTyr-Var library

Substance: ACCLLYCGDVV [TUBA4A_Y319_R320C]
Screen (c-Src kinase domain [1]; [4]): -0.4326 | Screen (c-Abl kinase domain; [5]): -0.5266 | Screen (Fer kinase domain; [6]): 2.253 | Screen (variant relative to reference peptide, measured in the pTyr-Var library screen) (EPHB1 kinase domain): 4.284 | Screen (EPHB2 kinase domain; [7]): 3.709

Substance: AQQPIYIRVEG [NLRP7_Y318_V319I]
Screen (c-Src kinase domain [1]; [4]): -2.214 | Screen (EPHB1 kinase domain): -2.185 | Screen (EPHB2 kinase domain; [8]): -2.079

Km (c-Src kinase domain [2]): 97 ± 10 µM | kcat (c-Src kinase domain [2]): 4.4±0.2 s^–1
Substance: Ac-GCDECIYGMFPFRRRG-NH2 [Src Consensus (P-5C, D+1 G), Src Consensus-related peptide with +1 Gly]

Phosphorylation Rate (c-Src kinase domain [3]): 0.219 s⁻¹
Substance: Ac-IGEGTYRTVFK-NH2 [CDK5-Y15-G16R]

Phosphorylation Rate (c-Src kinase domain [3]): 2.121 s⁻¹
Substance: Ac-SGDITYGQFAQ-NH2 [PLCG1_Y210]

Substance: CGPLLYGLVHQ [PRKCG_Y122_S119P]
Screen (c-Src kinase domain [1]; [4]): -0.4426 | Screen (Fer kinase domain; [9]): -0.6662 | Screen (EPHB1 kinase domain): 0.3123 | Screen (EPHB2 kinase domain; [8]): -0.1456

Substance: DAKTIYDFTDT [PDK1_Y136_A134T]
Screen (c-Src kinase domain [1]; [4]): -0.8148 | Screen (Fer kinase domain; [9]): -1.776 | Screen (EPHB2 kinase domain; [8]): -1.665

Substance: FQNSLYAPDFS [FAM92A_Y226_R222Q_YF]
Screen (c-Src kinase domain [1]; [10]): 0.8192 | Screen (Fer kinase domain; [9]): 1.873 | Screen (EPHB1 kinase domain): 0.991 | Screen (EPHB2 kinase domain; [8]): 1.651

Substance: GQRDLYSGLNE [CD3E_Y199_Q204E]
Screen (c-Src kinase domain [1]; [10]): -0.3824 | Screen (Fer kinase domain; [9]): -1.295 | Screen (EPHB1 kinase domain): -0.9821 | Screen (EPHB2 kinase domain; [8]): -0.7383

Substance: HNLDFYKMTTN [FGFR3_Y648_K650M_YF]
Screen (c-Src kinase domain [1]; [10]): -2.668 | Screen (Fer kinase domain; [9]): -0.9943 | Screen (EPHB1 kinase domain): -1.054 | Screen (EPHB2 kinase domain; [8]): 0.0281

Substance: IEEGTYGVAFR [CDK11B_Y449_V452A_YF]
Screen (c-Src kinase domain [1]; [10]): -0.1184 | Screen (Fer kinase domain; [9]): -0.4849 | Screen (EPHB1 kinase domain): -1.792 | Screen (EPHB2 kinase domain; [8]): -1.778

Substance: ITNLLYHLVGW [GBA_Y412_V414L]
Screen (c-Src kinase domain [1]; [10]): -0.6312 | Screen (Fer kinase domain; [9]): 0.1481 | Screen (EPHB1 kinase domain): -1.095 | Screen (EPHB2 kinase domain; [8]): -1.708

Screen (Fer kinase domain; [9]): 1.127 | Screen (EPHB1 kinase domain): 2.862 | Screen (EPHB2 kinase domain; [8]): 2.625
Substance: KLPFLYDDPFS [GPX2_Y127_P126L_YF]

Substance: KLVQLYDVCTK [BTK_Y461_G462D]
Screen (c-Src kinase domain [1]; [10]): 0.2967 | Screen (Fer kinase domain; [9]): 2.534 | Screen (EPHB1 kinase domain): 3.126 | Screen (EPHB2 kinase domain; [8]): 2.907

Substance: KVASVYEALGF [NT5C_Y65_P68L]
Screen (c-Src kinase domain [1]; [4]): 0.2966 | Screen (Fer kinase domain; [9]): -0.5868 | Screen (EPHB1 kinase domain): 1.12 | Screen (EPHB2 kinase domain; [8]): -0.4355

Substance: LDTFIYDAAVL [GRIN2A_Y730_A727T]
Screen (c-Src kinase domain [1]; [10]): 0.2901 | Screen (Fer kinase domain; [9]): -0.1876 | Screen (EPHB1 kinase domain): -0.673 | Screen (EPHB2 kinase domain; [8]): -0.5027

Substance: LENSTYQFIHV [CRB1_Y760_R764H_YF]
Screen (c-Src kinase domain [1]; [10]): 0.1019 | Screen (c-Abl kinase domain; [11]): -1.13 | Screen (Fer kinase domain; [9]): 0.6151 | Screen (EPHB1 kinase domain): 0.7891 | Screen (EPHB2 kinase domain; [8]): 0.62

Substance: LFEDCYLLGTS [ASS1_Y87_R86C_YF]
Screen (c-Src kinase domain [1]; [10]): 2.612 | Screen (EPHB1 kinase domain): -1.767 | Screen (EPHB2 kinase domain; [8]): -0.8272

Substance: LLIMEYAKFGS [RET_Y806_V804M_YF]
Screen (c-Src kinase domain [1]; [4]): 0.7851 | Screen (EPHB1 kinase domain): -1.009 | Screen (EPHB2 kinase domain; [8]): -0.7138

Substance: LNEAVYTKMMT [G6PD_Y401_P396L]
Screen (c-Src kinase domain [1]; [10]): 0.3249 | Screen (Fer kinase domain; [9]): 1.268 | Screen (EPHB1 kinase domain): 1.441 | Screen (EPHB2 kinase domain; [8]): 2.035

Screen (Fer kinase domain; [6]): 2.023 | Screen (variant relative to reference peptide, measured in the pTyr-Var library screen) (EPHB1 kinase domain): 4.533 | Screen (EPHB2 kinase domain; [7]): 4.793
Substance: MVIPNYSSWTE [UROC1_Y185_R188W]

Substance: NTFENYWPFFQ [GATM_Y103_K102N_YF]
Screen (c-Src kinase domain [1]; [10]): 2.256 | Screen (EPHB1 kinase domain): 4.344 | Screen (EPHB2 kinase domain; [8]): 3.46

Substance: PFGQWYESHFA [RPS8_Y113_R110G_YF]
Screen (c-Src kinase domain [1]; [4]): 2.137 | Screen (Fer kinase domain; [6]): 2.253 | Screen (EPHB1 kinase domain): 2.825 | Screen (EPHB2 kinase domain; [8]): 2.604

Substance: PFRKLYESVKK [MKI67_Y241_W238R]
Screen (c-Src kinase domain [1]; [10]): -1.776 | Screen (Fer kinase domain; [9]): -1.869 | Screen (EPHB1 kinase domain): -3.688 | Screen (EPHB2 kinase domain; [8]): -2.876

Substance: PLDNLYAEPAV [PRPS1_Y146_V142L]
Screen (c-Src kinase domain [1]; [4]): 0.376 | Screen (Fer kinase domain; [9]): 0.1056 | Screen (EPHB1 kinase domain): 0.8585 | Screen (EPHB2 kinase domain; [8]): 0.4426

Screen (c-Abl kinase domain; [11]): 0.1709 | Screen (EPHB1 kinase domain): 0.7871 | Screen (EPHB2 kinase domain; [8]): 0.8579
Substance: PMFHSYVSLPF [PLXNA2_Y293_K289M]

Substance: QKTGDYFDLFG [PTPN11_Y62_N58K_YF]
Screen (c-Src kinase domain [1]; [4]): -1.277 | Screen (EPHB1 kinase domain): -1.083 | Screen (EPHB2 kinase domain; [8]): -1.66

Screen (c-Abl kinase domain; [5]): 2.922 | Screen (Fer kinase domain; [6]): 1.389 | Screen (EPHB2 kinase domain; [7]): 1.539
Substance: QLQQAYQEAFE [YWHAZ_Y149_S145L]

Substance: QSSALYEDHFL [ASS1_Y83_R86H_YF]
Screen (c-Src kinase domain [1]; [10]): 0.1278 | Screen (Fer kinase domain; [9]): 0.8014 | Screen (EPHB1 kinase domain): 0.2982 | Screen (EPHB2 kinase domain; [8]): 1.176

Substance: RGDCTYAPLLG [AR_Y269_M268T]
Screen (c-Src kinase domain [1]; [10]): 0.1809 | Screen (Fer kinase domain; [9]): -1.638 | Screen (EPHB1 kinase domain): 0.2378 | Screen (EPHB2 kinase domain; [8]): 0.1305

Screen (Fer kinase domain; [9]): -1.394 | Screen (EPHB1 kinase domain): -1.027 | Screen (EPHB2 kinase domain; [8]): -1.191
Substance: RGKLFYQEVPA [METTL11B_Y76_A72G]

Substance: RPPELYALMSD [ZAP70_Y569_C564R]
Screen (c-Src kinase domain [1]; [4]): 1.184 | Screen (c-Abl kinase domain; [5]): 3.577 | Screen (variant relative to reference peptide, measured in the pTyr-Var library screen) (EPHB1 kinase domain): 2.108 | Screen (EPHB2 kinase domain; [7]): 1.779

Substance: SPFMLYQFLKQ [RPAP3_Y567_D564Y_YF]
Screen (c-Src kinase domain [1]; [4]): -1.029 | Screen (Fer kinase domain; [6]): -1.212 | Screen (EPHB1 kinase domain): 2.24 | Screen (EPHB2 kinase domain; [8]): 1.841

Screen (variant relative to reference peptide, measured in the pTyr-Var library screen) (EPHB1 kinase domain): 3.351 | Screen (EPHB2 kinase domain; [8]): 2.197
Substance: SSPQLYLVPFL [TAF4_Y652_P651L]

Screen (EPHB1 kinase domain): 2.34 | Screen (EPHB2 kinase domain; [8]): 2.182
Substance: VGTKWYMAPEV [ACVRL1_Y375_R374W]
